Numbered stars: 1 amine (or outer) side, 2 acyl side, 3 side chain; on linkers, the order of the positions; unused ones are H or OH. Side chains are listed from the residue outwards. Peptide text beside a SMILES is read from it. * marks the point of attachment. C18 diacid = O=C(O)CCCCCCCCCCCCCCCCC(=O)*; C16 diacid = O=C(O)CCCCCCCCCCCCCCC(=O)*; γGlu = O=C(O)[C@H](CCC(=O)[*:2])N[*:1]; AEEA = NCCOCCOCC(=O)O

The target of this experiment is T1, glucagon receptor (Homo sapiens, UniProt P47871).
T1 construct: expressed in transfected cells
T1 sequence (P47871 26-477): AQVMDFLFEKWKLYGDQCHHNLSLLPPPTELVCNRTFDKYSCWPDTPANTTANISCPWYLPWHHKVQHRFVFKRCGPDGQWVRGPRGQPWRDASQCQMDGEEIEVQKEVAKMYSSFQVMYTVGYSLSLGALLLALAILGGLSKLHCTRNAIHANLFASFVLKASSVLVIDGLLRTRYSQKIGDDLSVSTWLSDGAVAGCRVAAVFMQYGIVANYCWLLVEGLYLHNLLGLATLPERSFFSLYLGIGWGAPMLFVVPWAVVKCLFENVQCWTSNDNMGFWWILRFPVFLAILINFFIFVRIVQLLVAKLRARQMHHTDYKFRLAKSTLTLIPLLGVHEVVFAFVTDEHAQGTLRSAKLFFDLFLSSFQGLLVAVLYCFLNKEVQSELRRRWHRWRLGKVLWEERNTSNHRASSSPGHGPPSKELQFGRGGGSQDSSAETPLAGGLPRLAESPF
Nature of the experiment: Assay (I) Glucagon activity (cAMP biosensor, FLIPR). It counts as cell-based.
For the compound `CC(C)C[C@H](NC(=O)[C@H](CC(N)=O)NC(=O)[C@H](CC(C)C)NC(=O)[C@H](CC(C)C)NC(=O)[C@H](Cc1c[nH]c2ccccc12)NC(=O)[C@H](CCCCNC(=O)CC[C@H](NC(=O)COCCOCCNC(=O)COCCOCCNC(=O)CC[C@H](NC(=O)CCCCCCCCCCCCCCCCC(=O)O)C(=O)O)C(=O)O)NC(=O)[C@@H](NC(=O)[C@H](Cc1ccccc1)NC(=O)[C@H](CCC(=O)O)NC(=O)[C@H](CCC(N)=O)NC(=O)[C@H](C)NC(=O)[C@H](CCCNC(=N)N)NC(=O)[C@H](CCCNC(=N)N)NC(=O)[C@@H](NC(=O)[C@H](CC(=O)O)NC(=O)[C@H](CC(C)C)NC(=O)[C@H](Cc1ccc(O)cc1)NC(=O)[C@H](CCCCN)NC(=O)[C@H](CO)NC(=O)[C@H](Cc1ccc(O)cc1)NC(=O)[C@H](CC(=O)O)NC(=O)[C@H](CO)NC(=O)[C@@H](NC(=O)[C@H](Cc1ccccc1)NC(=O)[C@@H](NC(=O)CNC(=O)[C@H](CCC(N)=O)NC(=O)[C@H](CO)NC(=O)[C@@H](N)Cc1c[nH]cn1)[C@@H](C)O)[C@@H](C)O)[C@@H](C)O)C(C)C)C(=O)O` [Example 37, N^ε24-[(4S)-4-carboxy-4-[[2-[2-[2-[[2-[2-[2-[[(4S)-4-carboxy-4-(17-carboxyheptadecanoylamino)butanoyl]amino]ethoxy]ethoxy]acetyl]amino]ethoxy]ethoxy]acetyl]amino]butanoyl]-[Thr16,Glu21,Lys24,Leu27,Leu29]-Glucagon] (H-HSQGTFTSDYSKYLDTRRAQEFVK([γGlu-AEEA-AEEA-γGlu-C18 diacid])WLLNL-OH), the EC50 worked out at 183 pM. This lies in the sub-nanomolar range.

`CC(C)C[C@H](NC(=O)[C@H](Cc1ccc(O)cc1)NC(=O)[C@H](CCCNC(=N)N)NC(=O)[C@H](CO)NC(=O)[C@H](Cc1ccc(O)cc1)NC(=O)[C@H](CC(=O)O)NC(=O)[C@H](CO)NC(=O)[C@@H](NC(=O)[C@H](Cc1ccccc1)NC(=O)[C@@H](NC(=O)CNC(=O)[C@H](CCC(N)=O)NC(=O)[C@H](CO)NC(=O)[C@@H](N)Cc1c[nH]cn1)[C@@H](C)O)[C@@H](C)O)C(=O)N[C@@H](CCC(=O)O)C(=O)N[C@@H](CO)C(=O)N[C@@H](CCCNC(=N)N)C(=O)N[C@@H](CCCNC(=N)N)C(=O)N[C@@H](C)C(=O)N[C@@H](CCC(N)=O)C(=O)N[C@@H](CCC(=O)O)C(=O)N[C@@H](Cc1ccccc1)C(=O)N[C@H](C(=O)N[C@@H](CCCCNC(=O)CC[C@H](NC(=O)CC[C@H](NC(=O)COCCOCCNC(=O)COCCOCCNC(=O)CC[C@H](NC(=O)CCCCCCCCCCCCCCCCC(=O)O)C(=O)O)C(=O)O)C(=O)O)C(=O)N[C@@H](Cc1c[nH]c2ccccc12)C(=O)N[C@@H](CC(C)C)C(=O)N[C@@H](CCC(=O)O)C(=O)N[C@@H](CO)C(=O)N[C@H](C(=O)O)[C@@H](C)O)C(C)C` [Example 55, N^ε24-[(4S)-4-carboxy-4-[[(4S)-4-carboxy-4-[[2-[2-[2-[[2-[2-[2-[[(4S)-4-carboxy-4-(17-carboxyheptadecanoylamino)butanoyl]amino]ethoxy]ethoxy]acetyl]amino]ethoxy]ethoxy]acetyl]amino]butanoyl]amino]butanoyl]-[Arg12,Glu15,Glu21,Lys24,Glu27,Ser28]-Glucagon] (H-HSQGTFTSDYSRYLESRRAQEFVK([γGlu-γGlu-AEEA-AEEA-γGlu-C18 diacid])WLEST-OH): the EC50 came out at 1090 pM.

`CC(C)C[C@H](NC(=O)[C@H](Cc1c[nH]c2ccccc12)NC(=O)[C@H](CCCCNC(=O)CC[C@H](NC(=O)CC[C@H](NC(=O)COCCOCCNC(=O)COCCOCCNC(=O)CC[C@H](NC(=O)CCCCCCCCCCCCCCC(=O)O)C(=O)O)C(=O)O)C(=O)O)NC(=O)[C@@H](NC(=O)[C@H](Cc1ccccc1)NC(=O)[C@H](CC(=O)O)NC(=O)[C@H](CCC(N)=O)NC(=O)[C@H](C)NC(=O)[C@H](CCCNC(=N)N)NC(=O)[C@H](CCCNC(=N)N)NC(=O)[C@@H](NC(=O)[C@H](CC(=O)O)NC(=O)[C@H](CC(C)C)NC(=O)[C@H](Cc1ccc(O)cc1)NC(=O)[C@H](CCCNC(=N)N)NC(=O)[C@H](CO)NC(=O)[C@H](Cc1ccc(O)cc1)NC(=O)[C@H](CC(=O)O)NC(=O)[C@H](CO)NC(=O)[C@@H](NC(=O)[C@H](Cc1ccccc1)NC(=O)[C@@H](NC(=O)CNC(=O)[C@H](CCC(N)=O)NC(=O)[C@H](CO)NC(=O)[C@@H](N)Cc1c[nH]cn1)[C@@H](C)O)[C@@H](C)O)[C@@H](C)O)C(C)C)C(=O)N[C@@H](CC(C)C)C(=O)N[C@@H](CO)C(=O)N[C@H](C(=O)O)[C@@H](C)O` [Example 82, N^ε24-[(4S)-4-carboxy-4-[[(4S)-4-carboxy-4-[[2-[2-[2-[[2-[2-[2-[[(4S)-4-carboxy-4-(15-carboxypentadecanoylamino)butanoyl]amino]ethoxy]ethoxy]acetyl]amino]ethoxy]ethoxy]acetyl]amino]butanoyl]amino]butanoyl]-[Arg12,Thr16,Lys24,Leu27,Ser28]-Glucagon] (H-HSQGTFTSDYSRYLDTRRAQDFVK([γGlu-γGlu-AEEA-AEEA-γGlu-C16 diacid])WLLST-OH) registered an EC50 of 25 pM. This EC50 is about 44-fold lower than that of the compound before.

`CC[C@H](C)[C@H](NC(=O)[C@H](CC(C)C)NC(=O)[C@H](CC(C)C)NC(=O)[C@H](Cc1c[nH]c2ccccc12)NC(=O)[C@H](CCCCNC(=O)CC[C@H](NC(=O)CC[C@H](NC(=O)COCCOCCNC(=O)COCCOCCNC(=O)CC[C@H](NC(=O)CCCCCCCCCCCCCCCCC(=O)O)C(=O)O)C(=O)O)C(=O)O)NC(=O)[C@@H](NC(=O)[C@H](Cc1ccccc1)NC(=O)[C@H](CC(=O)O)NC(=O)[C@H](CCC(N)=O)NC(=O)[C@H](C)NC(=O)[C@H](CCCNC(=N)N)NC(=O)[C@H](CCCNC(=N)N)NC(=O)[C@H](CC(C)C)NC(=O)[C@H](CC(=O)O)NC(=O)[C@H](CC(C)C)NC(=O)[C@H](Cc1ccc(O)cc1)NC(=O)[C@H](CCCNC(=N)N)NC(=O)[C@H](CO)NC(=O)[C@H](Cc1ccc(O)cc1)NC(=O)[C@H](CC(=O)O)NC(=O)[C@H](CO)NC(=O)[C@@H](NC(=O)[C@H](Cc1ccccc1)NC(=O)[C@@H](NC(=O)CNC(=O)[C@H](CCC(N)=O)NC(=O)[C@H](CO)NC(=O)[C@@H](N)Cc1c[nH]cn1)[C@@H](C)O)[C@@H](C)O)C(C)C)C(=O)N[C@H](C(=O)O)[C@@H](C)O` [Example 18, N^ε24-[(4S)-4-carboxy-4-[[(4S)-4-carboxy-4-[[2-[2-[2-[[2-[2-[2-[[(4S)-4-carboxy-4-(17-carboxyheptadecanoylamino)butanoyl]amino]ethoxy]ethoxy]acetyl]amino]ethoxy]ethoxy]acetyl]amino]butanoyl]amino]butanoyl]-[Arg^12,Leu^16,Lys^24,Leu^27,Ile^28]-Glucagon] (H-HSQGTFTSDYSRYLDLRRAQDFVK([γGlu-γGlu-AEEA-AEEA-γGlu-C18 diacid])WLLIT-OH) registered an EC50 of 1670 pM. This EC50 lies about 67-fold higher than the previous one.

`CC(C)C[C@H](NC(=O)[C@H](Cc1ccc(O)cc1)NC(=O)[C@H](CCCCN)NC(=O)[C@H](CO)NC(=O)[C@H](Cc1ccc(O)cc1)NC(=O)[C@H](CC(=O)O)NC(=O)[C@H](CO)NC(=O)[C@@H](NC(=O)[C@H](Cc1ccccc1)NC(=O)[C@@H](NC(=O)CNC(=O)[C@H](Cc1c[nH]cn1)NC(=O)[C@H](CO)NC(=O)[C@@H](N)Cc1c[nH]cn1)[C@@H](C)O)[C@@H](C)O)C(=O)N[C@@H](CC(=O)O)C(=O)N[C@@H](CO)C(=O)N[C@@H](CCCNC(=N)N)C(=O)N[C@@H](CCCNC(=N)N)C(=O)N[C@@H](C)C(=O)N[C@@H](CCCCN)C(=O)N[C@@H](CC(=O)O)C(=O)N[C@@H](Cc1ccccc1)C(=O)N[C@H](C(=O)N[C@@H](CCCCNC(=O)CC[C@H](NC(=O)CC[C@H](NC(=O)COCCOCCNC(=O)COCCOCCNC(=O)CC[C@H](NC(=O)CCCCCCCCCCCCCCCCC(=O)O)C(=O)O)C(=O)O)C(=O)O)C(=O)N[C@@H](Cc1c[nH]c2ccccc12)C(=O)N[C@@H](CC(C)C)C(=O)N[C@@H](CC(C)C)C(=O)N[C@@H](CO)C(=O)N[C@H](C(=O)O)[C@@H](C)O)C(C)C` [Example 3, N^ε24-[(4S)-4-carboxy-4-[[(4S)-4-carboxy-4-[[2-[2-[2-[[2-[2-[2-[[(4S)-4-carboxy-4-(17-carboxyheptadecanoylamino)butanoyl]amino]ethoxy]ethoxy]acetyl]amino]ethoxy]ethoxy]acetyl]amino]butanoyl]amino]butanoyl]-[His^3,Lys^20,Lys^24,Leu^27,Ser^28]-Glucagon] (H-HSHGTFTSDYSKYLDSRRAKDFVK([γGlu-γGlu-AEEA-AEEA-γGlu-C18 diacid])WLLST-OH) yielded an EC50 of 249 pM.

`CC(C)C[C@H](NC(=O)[C@H](CC(=O)O)NC(=O)[C@H](CC(C)C)NC(=O)[C@H](Cc1ccc(O)cc1)NC(=O)[C@H](CCCNC(=N)N)NC(=O)[C@H](CO)NC(=O)[C@H](Cc1ccc(O)cc1)NC(=O)[C@H](CC(=O)O)NC(=O)[C@H](CO)NC(=O)[C@@H](NC(=O)[C@H](Cc1ccccc1)NC(=O)[C@@H](NC(=O)CNC(=O)[C@H](CCC(N)=O)NC(=O)[C@H](CO)NC(=O)[C@@H](N)Cc1c[nH]cn1)[C@@H](C)O)[C@@H](C)O)C(=O)N[C@@H](CCCNC(=N)N)C(=O)N[C@@H](CCCNC(=N)N)C(=O)N[C@@H](C)C(=O)N[C@@H](CCC(N)=O)C(=O)N[C@@H](CC(=O)O)C(=O)N[C@@H](Cc1ccccc1)C(=O)N[C@H](C(=O)N[C@@H](CCCCNC(=O)CC[C@H](NC(=O)CC[C@H](NC(=O)COCCOCCNC(=O)COCCOCCNC(=O)CC[C@H](NC(=O)CCCCCCCCCCCCCCCCC(=O)O)C(=O)O)C(=O)O)C(=O)O)C(=O)N[C@@H](Cc1c[nH]c2ccccc12)C(=O)N[C@@H](CC(C)C)C(=O)N[C@@H](CC(C)C)C(=O)N[C@@H](CCC(N)=O)C(=O)N[C@H](C(=O)O)[C@@H](C)O)C(C)C` [Example 48, N^ε24-[(4S)-4-carboxy-4-[[(4S)-4-carboxy-4-[[2-[2-[2-[[2-[2-[2-[[(4S)-4-carboxy-4-(17-carboxyheptadecanoylamino)butanoyl]amino]ethoxy]ethoxy]acetyl]amino]ethoxy]ethoxy]acetyl]amino]butanoyl]amino]butanoyl]-[Arg12,Leu16,Lys24,Leu27,Gln28]-Glucagon] (H-HSQGTFTSDYSRYLDLRRAQDFVK([γGlu-γGlu-AEEA-AEEA-γGlu-C18 diacid])WLLQT-OH) had an EC50 of 204 pM.

Values taken from patent US9486506B2 (Novo Nordisk A/S, priority 2011, dated 2016).
